Experimental data reported in patent US5733931A, “Cyclohexanediurea derivative and process for its production” (Nissin Food Products Co., Ltd., priority 1993, dated 1998).

Columns and labels:
serum cholesterol [1] = test: Serum cholesterol lowering effect in rat having high cholesterol [3-1]; type: in vivo, SD-type (Sprague-Dawley) male rat; conditions: oral, once a day for 5 days, dissolved in saline, Table 12
Method: 3) Cholesterol Lowering Effect
[3-1] Using a rat having high cholesterol, compounds of the invention were tested for their serum cholesterol lowering effects by the following method. A 6-week-old SD-type (Sprague-Dawley) male rat was fed with food containing 1% of cholesterol, 0.5% of cholic acid and 5% of olive oil for 2 days and then orally administered the food and a compound of the invention as dissolved in saline once a day for 5 days starting on day 3. Four hours after the final administration, a blood sample was taken. The total cholesterol in the serum of the test group was measured and compared with that of the control group.

serum cholesterol [2] = test: Serum cholesterol lowering effect in rat having high cholesterol [3-2]; type: in vivo, SD-type (Sprague-Dawley) male rat; conditions: oral, once a day for the last 5 days, Tween 80 and saline suspension, Table 13
Method: [3-2] Using a rat having high cholesterol, compounds of the invention were tested for their serum cholesterol lowering effects by the following method. A 6-week-old SD-type (Sprague-Dawley) male rat was fed with food containing 1% of cholesterol, 0.5% of cholic acid and 5% of olive oil for 7 days. For the last 5 days, a test sample suspended in some drops of Tween 80 and saline was orally administered once a day. Four hours after the final administration, a blood sample was taken from celiac aorta of the rat under etherization. The total cholesterol in the serum of the test group was measured by the oxygen method and compared with that of the control group.

[3] = tested on: ACAT enzyme of human HepG2 cells; test: ACAT enzyme activity of human HepG2 cells (microsome fractions); type: biochemical; conditions: Table 11, read-out: IC50, inhibitory effect on ACAT enzyme activity, human HepG2
Method: (§1) ACAT enzyme activities of the microsomes were determined by the method of J. G. Heider (J. Lipid Res., 24, 1127-1134, 1983). A test sample dissolved in 1% dimethylsulfoxide was added to a microsome fraction (100 μg), a phosphoric acid buffer (0.154M) having pH 7.4, 1-^14 C-oleoyl CoA (36 μM), dithiosleitol (2 mM) and bovine blood serum albumin (36 μg/ml). The reaction mixture adjusted to a final capacity of 0.5 ml was incubated at 37° C. for 60 minutes. A mixture (6 ml) of chloroform and methanol (2:1) was added and the reaction was stopped. Cholesterol oleate was extracted with chloroform and separated by thin-layer chromatography. ACAT enzyme activities of the microsome fractions were determined by radiation measurement.
(§2) [2-2] ACAT enzyme activities of human HepG2 and CaCo2 cells
(§3) Human HepG2 and CaCo2 cells purchased from ATCC (AMERICAN TYPE CULTURE COLLECTION) were used in this test.
(§4) Using RPMI 1640 medium for HepG2 and DMEM medium for CaCo2, HepG2 and CaCo2 cells were cultured with 40 ml of each medium containing 10% bovine blood serum, 50 I.U. of penicillin and 50 μg/ml of streptomycin in a 5% CO2 incubator at 37° C. The cells were then monolayer-culturedwith 80 ml of each medium containing […] of cholesterol and 5 μg/ml of 25-0H cholesterol in a 175 cm flask for 5 hours. The homogenizes of these cells were subjected to centrifugation at 105,000 g to collect microsome fractions. ACAT enzyme activities of the microsome fractions were determined by the above-mentioned method.

[4] = tested on: ACAT enzyme of human CaCo2 cells; test: ACAT enzyme activity of human CaCo2 cells (microsome fractions); type: biochemical; conditions: Table 11, read-out: IC50, inhibitory effect on ACAT enzyme activity, human CaCo2
Method: as §1, §2, §3, §4

[5] = molecular target: ACAT (Acyl-CoA: cholesterol acyltransferase) enzyme of rabbit liver microsome; test: Inhibitory effect on ACAT enzyme (No.1), rabbit liver microsome; type: biochemical; conditions: Table 9
Method: 1) Inhibitory effect on ACAT (Acyl-CoA: cholesterol acyltransferase) enzyme (No.1)
Compounds of the invention were tested for their inhibitory effects on ACAT enzyme of rabbit liver microsome by the method of J. G. Heider (J. of Lipid Res., vol. 24, 1127-1134, 1983). More specifically, the test was done by measuring the amount of labelled cholesterol oleate ester produced from oleic acid CoA (coenzyme A) labelled by radiation.

[6] = molecular target: ACAT enzyme of rabbit liver microsomes; test: Inhibitory effect on ACAT enzyme (No.2), rabbit liver microsomes; type: biochemical; conditions: pH 7.4, 37° C., 60 minutes, Table 10
Method: (§5) 2) Inhibitory effect on ACAT (Acyl-CoA: cholesterol acyltransferase) enzyme (No.2)
(§6) [2-1] ACAT enzyme activities of rabbit liver and small intestine mucosa microsomes
(§7) A white male rabbit was fed with a […] cholesterol-containing food for four weeks and bleeding-slaughtered to extract its liver and small intestine. Microsomes of the liver and small intestine mucosa were prepared by the method of C. Marco et al. (Biochim. Biophys. Acta, 617, 458-471, 1980).
as §1

[7] = molecular target: T1, ACAT enzyme of rabbit small intestine mucosa microsomes (Oryctolagus cuniculus, UniProt G1SFD9); test: Inhibitory effect on ACAT enzyme (No.2), rabbit small intestine mucosa microsomes; type: biochemical; conditions: pH 7.4, 37° C., 60 minutes, Table 10
T1 construct: Microsomes of the liver and small intestine mucosa were prepared; from tissue; host or cells: small intestine mucosa microsomes of a cholesterol-fed white male rabbit
T1 sequence (G1SFD9 1-524): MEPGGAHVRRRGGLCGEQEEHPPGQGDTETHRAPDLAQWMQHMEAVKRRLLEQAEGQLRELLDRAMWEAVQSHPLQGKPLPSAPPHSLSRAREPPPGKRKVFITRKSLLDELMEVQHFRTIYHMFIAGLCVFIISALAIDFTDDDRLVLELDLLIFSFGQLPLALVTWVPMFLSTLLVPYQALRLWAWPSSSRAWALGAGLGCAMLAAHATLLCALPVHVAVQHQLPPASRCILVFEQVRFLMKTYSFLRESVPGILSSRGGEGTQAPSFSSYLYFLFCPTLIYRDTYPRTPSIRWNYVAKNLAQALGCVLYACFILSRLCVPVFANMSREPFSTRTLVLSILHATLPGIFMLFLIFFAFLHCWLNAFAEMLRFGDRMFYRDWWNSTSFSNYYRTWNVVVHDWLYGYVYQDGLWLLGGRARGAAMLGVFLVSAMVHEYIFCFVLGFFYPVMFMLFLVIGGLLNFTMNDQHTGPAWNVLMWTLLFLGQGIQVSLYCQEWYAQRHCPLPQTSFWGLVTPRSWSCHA
Method: as §5, §6, §7, §1

IC50 [3] [nM] | IC50 [4] [nM] | IC50 [5] [nM] | IC50 [6] [nM] | IC50 [7] [nM] | Structure (SMILES) | Cholesterol lowering effect, % (serum total cholesterol vs control group) (serum cholesterol [1]; 3 mg/kg) [%] | Cholesterol lowering effect, % (serum total cholesterol vs control group) (serum cholesterol [1]; 10 mg/kg) [%] | Cholesterol lowering effect, % (serum total cholesterol vs control group) (serum cholesterol [2]; 3 mg/kg) [%] | Cholesterol lowering effect, % (serum total cholesterol vs control group) (serum cholesterol [2]; 1 mg/kg) [%]
 |  | 36 |  |  | CN(C)c1ccc(NC(=O)N(C[C@H]2CCC[C@H](CN(C(=O)Nc3ccc(N(C)C)cc3)C3CCCCCC3)C2)C2CCCCCC2)cc1 (relative stereo) [Example 61, Trans-1,3-bis[[1-cycloheptyl-3-(4-dimethylaminophenyl)ureido]methyl]cyclohexane] | 48 | 82 |  | 
1.1 | 0.74 |  | 36 | 24 | CN(C)c1ccc(NC(=O)N(C[C@H]2CC[C@H](CN(C(=O)Nc3ccc(N(C)C)cc3)C3CCCCC3)CC2)C2CCCCC2)cc1 [Example 12, Trans-1,4-bis[[1-cyclohexyl-3-(4-dimethylaminophenyl)ureido]methyl]cyclohexane] |  |  | 92.6 | 96.2
 |  | 46 |  |  | CN(C)c1ccc(NC(=O)N(C[C@@H]2CCC[C@H](CN(C(=O)Nc3ccc(N(C)C)cc3)C3CCCCCC3)C2)C2CCCCCC2)cc1 [Example 83, Cis-1,3-bis[[1-cycloheptyl-3-(4-dimethylaminophenyl)ureido]methyl]cyclohexane] | 43 | 91 |  | 
 |  | 50 |  |  | CN(C)c1ccc(NC(=O)N(C[C@H]2CC[C@@H](CN(C(=O)Nc3ccc(N(C)C)cc3)C3CCCCCC3)CC2)C2CCCCCC2)cc1 [Example 43, Cis-1,4-bis[[1-cycloheptyl-3-(4-dimethylaminophenyl)ureido]methyl]cyclohexane] | 88 | 107 |  | 
0.32 | 0.22 |  | 83 | 18 | CN(C)c1ccc(NC(=O)N(C[C@H]2CC[C@H](CN(C(=O)Nc3ccc(N(C)C)cc3)C3CCCCCC3)CC2)C2CCCCCC2)cc1 [Example 22, Trans-1,4-bis[[1-cycloheptyl-3-(4-dimethyaminophenyl)ureido]methyl]cyclohexane] |  |  | 97.2 | 77.6
 |  | 38 |  |  | CN(C)c1ccc(NC(=O)N(C[C@H]2CC[C@H](CN(C(=O)Nc3ccc(N(C)C)cc3)C3CCCCCC3)CC2)C2CCCCCC2)cc1 [Example 15, Trans-1,4-bis[[1-cycloheptyl-3-(4-dimethylaminophenyl)ureido]methyl]cyclohexane] | 93 | 99 |  | 

Further lines, the molecule ahead of its results:

Structure (SMILES) | IC50 [3] [nM] | IC50 [4] [nM] | IC50 [5] [nM] | IC50 [6] [nM] | IC50 [7] [nM] | Cholesterol lowering effect, % (serum total cholesterol vs control group) (serum cholesterol [1]; 3 mg/kg) [%] | Cholesterol lowering effect, % (serum total cholesterol vs control group) (serum cholesterol [1]; 10 mg/kg) [%] | Cholesterol lowering effect, % (serum total cholesterol vs control group) (serum cholesterol [2]; 3 mg/kg) [%] | Cholesterol lowering effect, % (serum total cholesterol vs control group) (serum cholesterol [2]; 1 mg/kg) [%]
CN(C)c1ccc(NC(=O)N(Cc2cccc(CN(C(=O)Nc3ccc(N(C)C)cc3)C3CCCCCC3)c2)C2CCCCCC2)cc1 [YM-17E, reference compound] | 9.6 | 14 | 23 | 23 |  | 38 | 91 | 38.0 | 
O=C(Nc1ccc(N2CCOCC2)cc1)N(C[C@H]1CC[C@H](CN(C(=O)Nc2ccc(N3CCOCC3)cc2)C2CCCCC2)CC1)C1CCCCC1 [Example 14-4, Trans-1,4-bis[[1-cyclohexyl-3-(4-morpholinophenyl)ureido]methyl]cyclohexane] |  |  |  |  |  |  |  | 98.8 | 79.9
CN(C)c1ccc(NC(=O)N(C[C@H]2CC[C@@H](CN(C(=O)Nc3ccc(N(C)C)cc3)C3CCCCC3)CC2)C2CCCCC2)cc1 [Example 42, Cis-1,4-bis[[1-cyclohexyl-3-(4-dimethylaminophenyl)ureido]methyl]cyclohexane] |  |  | 60 |  |  | 110 | 102 |  | 
CN(C)c1ccc(NC(=O)N(C[C@H]2CC[C@H](CN(C(=O)Nc3ccc(N(C)C)cc3)C3CCCCC3)CC2)C2CCCCC2)cc1 [Example 12-1, Trans-1,4-bis[[1-cyclohexyl-3-(4-dimethylaminophenyl)ureido]methyl]cyclohexane] | 1.5 | 1.5 |  | 78 | 29 |  |  | 108.3 | 100.4
O=C(Nc1ccc(N2CCCCC2)cc1)N(C[C@H]1CC[C@H](CN(C(=O)Nc2ccc(N3CCCCC3)cc2)C2CCCCC2)CC1)C1CCCCC1 [Example 13, Trans-1,4-bis[[1-cyclohexyl-3-(4-piperidinophenyl)ureido]methyl]cyclohexane] | 0.86 | 1.1 |  | 35 | 130 |  |  | 96.2 | 76.8
CN(C)c1ccc(NC(=O)N(CC(C)(C)C)C[C@H]2CC[C@H](CN(CC(C)(C)C)C(=O)Nc3ccc(N(C)C)cc3)CC2)cc1 [Example 7, Trans-1,4-bis[[3-(4-dimethylaminophenyl)-1-neopentylureido]methyl]cyclohexane] |  |  | 100 |  |  | 105 | 103 |  | 
O=C(Nc1ccc(N2CCCCCC2)cc1)N(C[C@H]1CC[C@H](CN(C(=O)Nc2ccc(N3CCCCCC3)cc2)C2CCCCC2)CC1)C1CCCCC1 [Example 14-2, Trans-1,4-bis[[1-cyclohexyl-3-(4-homopiperidinophenyl)ureido]methyl]cyclohexane] | 0.27 | 1.6 |  | 62 | 52 |  |  |  | 
CN(C)c1ccc(NC(=O)N(C[C@H]2CC[C@H](CN(C(=O)Nc3ccc(N(C)C)cc3)C3CCCC3)CC2)C2CCCC2)cc1 [Example 11, Trans-1,4-bis[[1-cyclopentyl-3-(4-dimethylaminophenyl)ureido]methyl]cyclohexane] |  |  | 47 |  |  | 108 | 101 |  | 
